# Measured values reported in patent publication US20160151285A1, “METHOD TO PRODUCE SLOW RELEASE DELIVERY CARRIER LIPID NANOPARTICLES OF DIFFERENT LOG P VALUE” (University of Malaya, priority 2014, published 2016).
# Assays:
# [1] = In vitro release study, Automated Franz Diffusion Cell System, Higuchi model fit; format: physicochemical; conditions: 37° C., PBS pH7.4, 24 hours, regenerated cellulose membrane
# Description: Four different samples were run in 6 diffusate chamber volume of 4 ml […] PBS solution at pH7.4, with 0.6362 cm^2 effective diffusion area, under 400 rpm stirring and circulation of water bath at 37±1° C. throughout the experiments. Approximately 500 mg of each sample was loaded on the regenerated cellulose membrane surface (5000 Da molecular weight cut-off) in the retentate compartment, which was pre-soaked overnight, to be evaluated for 24 hours. At predetermined intervals, samples were withdrawn to be determined spectrophotometrically for the drug content and replaced with fresh receiving medium. The calculations are done based on average of six measurements from six different retentate compartments.
# [2] = log P of the compound used / encapsulated; cited from earlier work
Compound,"Slope (release rate, Higuchi Model) ([1]; In NLC (NLC-1, NLC-2, NLC-3))","Slope (release rate, Higuchi Model) ([1]; In cream (C1, C2, C3))","Slope (release rate, Higuchi Model) ([1]; In solution (A1, A2, A3))",Log P [2]
"CN(C)c1ccc2cc3ccc(N(C)C)cc3nc2c1 [Acridine orange, acridine orange]",0.43,4.12,19.15,–
"O=S(=O)(O)c1cc2cc(S(=O)(=O)O)c(N=Nc3ccccc3[As](=O)(O)O)c(O)c2c(O)c1N=Nc1ccccc1[As](=O)(O)O [Arsenazo III, arsenazo III]",8.93,11.48,19.25,0.49
